Experimental data: patent publication US9891239B2, “Modulators of pharmacokinetic properties of therapeutics” (Gilead Sciences, Inc., priority 2007, dated 2018)
pEC50: −log10 of the molar value.

System: wild-type HIV-1 strain IIIB
Assay: Anti-HIV-1 cell culture assay (EC50), XTT readout of cytopathic effect in MT2 cells
Assay type: cell-based
Settings: Human immunodeficiency virus 1, IIIB, MT2, 120 h, read-out: protease inhibition activity represented by HIV EC50
Method: The assay is based on quantification of the HIV-1-associated cytopathic effect by a […] detection of the viability of virus-infected cells in the presence or absence of tested inhibitors. HIV-1-induced cell death was determined using a metabolic substrate 2,3-bis(2-methoxy-4-nitro-5-sulfophenyl)-2H-tetrazolium-5-carboxanilide (XTT) which is converted only by intact cells into a product with specific absorption characteristics as described by Weislow O S, Kiser R, Fine D L, Bader J, Shoemaker R H and Boyd M R, J. Natl. Cancer Inst. 81, 577 (1989) (herein incorporated by reference in its entirety for all purposes). […]
To determine the antiviral activity of the tested inhibitors, a substrate XTT solution (6 mL per assay plate) at a concentration of 2 mg/mL in a phosphate-buffered saline pH 7.4 was heated in water-bath for 5 min at 55° C. before 50 μl of N-methylphenazonium methasulfate (5 μg/mL) was added per 6 mL of XTT solution. […] Viability, as determined by the amount of XTT metabolites produced, was quantified spectrophotometrically by the absorbance at 450 nm (with subtraction of the background absorbance at 650 nm). […]

CC(C)c1nc(CN(C)C(=O)N[C@@H](CCN2CCOCC2)C(=O)N[C@H](CC[C@H](Cc2ccccc2)NC(=O)OCc2cncs2)Cc2ccccc2)cs1 [Example S]
pEC50: < 4.52
